Patent US10501479B2, “Benzenesulfonyl-asymmetric ureas and medical uses thereof” (HELSINN HEALTHCARE SA, priority 2016, dated 2019)
Read-outs that look alike come from different tables or passages of the source.

Columns and labels:
Format in all cases: cell-based
[1] = target: T1, GHSR-1a (HEK293/GHSR1a cell line) (Homo sapiens, UniProt Q92847); assay: Ghrelin antagonist potency (IC50) with calcium FLIPR assay, ghrelin 10 nM; details: ghrelin antagonist potency, read-out: Activity IC50
T1 construct: expressed in transfected cells; host or cells: HEK293/GHSR1a cell line
In short: (§1)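 Calcium flux was followed 2 min by FLIPR in dye-loaded HEK293/GHSR1a cells. For antagonist IC50, compound and ghrelin (10 nM) were co-added at t=20 sec and inhibition of the ghrelin signal fitted; for agonist EC50, compound alone was added at t=20 sec and dose-response fitted.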

[2] = target: T2, recombinant human ghrelin receptor (HEK293/GRLN) (Homo sapiens, UniProt Q92847); assay: Ghrelin inverse agonist potency (EC50) with IP-1 (IP-One HTRF) assay; details: ghrelin inverse agonist potency, IP-1 assay; read-out: Activity EC50
T2 construct: expressed in transfected cells
In short: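 IP-1 accumulation was measured by HTRF (IP1-d2/Tb-cryptate, 620/665 nm read after 1 hour at room temperature) following 1 hour of compound treatment at 37° C. Cells were HEK293 stably expressing human ghrelin receptor, plated a day earlier on Matrigel. Inverse agonist potency was reported as EC50.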

[3] = target: T1, GHSR-1a (HEK293/GHSR1a cell line); assay: Ghrelin agonist potency (EC50) with calcium FLIPR assay; details: ghrelin agonist potency, read-out: Activity EC50/EMax
In short: as §1

T1 sequence (Q92847 whole entry): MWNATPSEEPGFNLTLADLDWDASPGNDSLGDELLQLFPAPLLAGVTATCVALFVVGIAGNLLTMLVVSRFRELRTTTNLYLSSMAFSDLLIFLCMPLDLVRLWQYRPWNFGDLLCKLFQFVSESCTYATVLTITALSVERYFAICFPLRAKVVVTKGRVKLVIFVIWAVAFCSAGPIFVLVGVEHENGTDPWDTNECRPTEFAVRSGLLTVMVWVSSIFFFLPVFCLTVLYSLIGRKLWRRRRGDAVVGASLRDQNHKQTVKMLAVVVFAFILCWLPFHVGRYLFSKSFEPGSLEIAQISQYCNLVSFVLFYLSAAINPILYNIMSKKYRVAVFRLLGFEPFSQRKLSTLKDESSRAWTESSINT
T2 sequence (Q92847 whole entry): as above

SMILES	IC50 [1] [nM]	EC50 [2] [nM]	EC50 [3] [µM]	EC50 ([3]; heading: Activity EC50/EMax) [µM]
CC(NC(=O)N(O)c1ccc(S(=O)(=O)Cc2ccc3c(c2)CN(C)C3)cc1)c1ccccc1 (stereo not drawn) [H1458, 1-hydroxy-1-(4-(((2-methylisoindolin-5-yl)methyl)sulfonyl)phenyl)-3-(1-phenylethyl)urea]	1170	288	> 30	–
CC(c1ccccc1)N(C)C(=O)Nc1ccc(S(=O)(=O)Cc2ccc3c(c2)CNC3)cc1O (stereo not drawn) [H1460, 3-(2-hydroxy-4-((isoindolin-5-ylmethyl)sulfonyl)phenyl)-1-methyl-1-(1-phenylethyl)urea]	536	163	> 30	–
COc1cc(S(=O)(=O)Cc2nc3c(s2)CNC3)ccc1NC(=O)N[C@@H](C)c1ccccc1 [H1463, (S)-1-(4-(((5,6-dihydro-4H-pyrrolo[3,4-d]thiazol-2-yl)methyl)sulfonyl)-2-methoxyphenyl)-3-(1-phenylethyl)urea]	1150	289	> 30	–
COc1cc(S(=O)(=O)Cc2nc3c(s2)CN(C)C3)ccc1NC(=O)N[C@@H](C)c1ccccc1 [H1464, (S)-1-(2-methoxy-4-(((5-methyl-5,6-dihydro-4H-pyrrolo[3,4-d]thiazol-2-yl)methyl)sulfonyl)phenyl)-3-(1-phenylethyl)urea]	2960	290	> 30	–
C[C@H](NC(=O)Nc1ccc(S(=O)(=O)Cc2nc3c(s2)CNC3)cc1)c1ccccc1 [H1465, (S)-1-(4-(((5,6-dihydro-4H-pyrrolo[3,4-d]thiazol-2-yl)methyl)sulfonyl)phenyl)-3-(1-phenylethyl)urea]	5290	678	> 30	–
COC(=O)c1cc(S(=O)(=O)Cc2ccc3c(c2)CN(C)C3)ccc1NC(=O)NC(C)c1ccccc1 (stereo not drawn) [H1466, methyl 5-(((2-methylisoindolin-5-yl)methyl)sulfonyl)-2-(3-(1-phenylethyl)ureido)benzoate]	72.4	16.8	> 30	–
CC(NC(=O)Nc1ccc(S(=O)(=O)Cc2ccc3c(c2)CNC3)cc1CO)c1ccccc1 (stereo not drawn) [H1467, 1-(2-(hydroxymethyl)-4-((isoindolin-5-ylmethyl)sulfonyl)phenyl)-3-(1-phenylethyl)urea]	121	19.7	> 30	–
CC(NC(=O)Nc1ccc(S(=O)(=O)Cc2ccc3c(c2)CN(C)C3)cc1CO)c1ccccc1 (stereo not drawn) [H1468, 1-(2-(hydroxymethyl)-4-(((2-methylisoindolin-5-yl)methyl)sulfonyl)phenyl)-3-(1-phenylethyl)urea]	80.6	18.2	> 30	–
CC(c1ccccc1)n1c(=O)[nH]c2ccc(S(=O)(=O)Cc3ccc4c(c3)CNC4)cc2c1=O (stereo not drawn) [H1469, 6-((isoindolin-5-ylmethyl)sulfonyl)-3-(1-phenylethyl)quinazoline-2,4(1H,3H)-dione]	110	26	–	0.11
CC(c1ccccc1)n1c(=O)[nH]c2ccc(S(=O)(=O)Cc3ccc4c(c3)CN(C)C4)cc2c1=O (stereo not drawn) [H1470, 6-(((2-methylisoindolin-5-yl)methyl)sulfonyl)-3-(1-phenylethyl)quinazoline-2,4(1H,3H)-dione]	483	22.3	–	0.227
CC(c1ccccc1)N(O)C(=O)Nc1ccc(S(=O)(=O)Cc2ccc3c(c2)CN(C)C3)cc1 (stereo not drawn) [H1471, 1-hydroxy-3-(4-(((2-methylisoindolin-5-yl)methyl)sulfonyl)phenyl)-1-(1-phenylethyl)urea]	11.8	3.89	> 30	–
CC(NC(=O)N(O)c1ccc(S(=O)(=O)Cc2ccc3c(c2)CNC3)cc1)c1ccccc1 (stereo not drawn) [H1473, 1-hydroxy-1-(4-((isoindolin-5-ylmethyl)sulfonyl)phenyl)-3-(1-phenylethyl)urea]	2240	515	> 30	–
CC(c1ccccc1)N(C)C(=O)Nc1ccc(S(=O)(=O)Cc2ccc3c(c2)CN(C)C3)cc1O (stereo not drawn) [H1474, 3-(2-hydroxy-4-(((2-methylisoindolin-5-yl)methyl)sulfonyl)phenyl)-1-methyl-1-(1-phenylethyl)urea]	700	133	> 30	–
COc1ccc(C(C)NC(=O)Nc2ccc(S(=O)(=O)Cc3ccc4c(c3)CNC4)cc2)cc1Cl (stereo not drawn) [H1475, 1-(1-(3-chloro-4-methoxyphenyl)ethyl)-3-(4-((isoindolin-5-ylmethyl)sulfonyl)phenyl)urea]	32.2	18.9	> 30	–
COc1ccc(C(C)NC(=O)Nc2ccc(S(=O)(=O)Cc3ccc4c(c3)CN(C)C4)cc2)cc1Cl (stereo not drawn) [H1476, 1-(1-(3-chloro-4-methoxyphenyl)ethyl)-3-(4-(((2-methylisoindolin-5-yl)methyl)sulfonyl)phenyl)urea]	42.6	24.1	> 30	–
COc1ccc(CNC(=O)Nc2ccc(S(=O)(=O)Cc3ccc4c(c3)CN(C)C4)cc2)cc1Cl [H1478, 1-(3-chloro-4-methoxybenzyl)-3-(4-(((2-methylisoindolin-5-yl)methyl)sulfonyl)phenyl)urea]	40.3	19.6	> 30	–
CC(NC(=O)Nc1ccc(C(=O)Nc2ccc3c(c2)CNC3)cc1)c1ccccc1 (stereo not drawn) [H1479, N-(isoindolin-5-yl)-4-(3-(1-phenylethyl)ureido)benzamide]	2500	1950	> 30	–
CC(NC(=O)Nc1ccc(C(=O)Nc2ccc3c(c2)CN(C)C3)cc1)c1ccccc1 (stereo not drawn) [H1480, N-(2-methylisoindolin-5-yl)-4-(3-(1-phenylethyl)ureido)benzamide]	24200	> 10000	> 30	–
O=C(NCC1COc2ccccc2O1)Nc1ccc(S(=O)(=O)Cc2ccc3c(c2)CNC3)cc1 (stereo not drawn) [H1483, 1-((2,3-dihydrobenzo[b][1,4]dioxin-2-yl)methyl)-3-(4-((isoindolin-5-ylmethyl)sulfonyl)phenyl)urea]	53.8	24.1	> 30	–
CC(NC(=O)Nc1ccc(S(=O)(=O)Cc2ccc3c(c2)CNC3)cc1Br)c1ccccc1 (stereo not drawn) [H1485, 1-(2-bromo-4-((isoindolin-5-ylmethyl)sulfonyl)phenyl)-3-(1-phenylethyl)urea]	19.1	10.2	> 30	–
CC(NC(=O)Nc1ccc(S(=O)(=O)CC2=CC3CCC(C2)N3)cc1)c1cccc(Cl)c1Cl (stereo not drawn) [H1488, 1-(4-(((8-azabicyclo[3.2.1]oct-2-en-3-yl)methyl)sulfonyl)phenyl)-3-(1-(2,3-dichlorophenyl)ethyl)urea]	2050	668	> 30	–
O=C(Nc1ccc(S(=O)(=O)Cc2ccc3c(c2)CNC3)cc1)N(O)Cc1ccccc1 [H1502, 1-benzyl-1-hydroxy-3-(4-((isoindolin-5-ylmethyl)sulfonyl)phenyl)urea]	164	35.1	> 30	–
CN1Cc2ccc(CS(=O)(=O)c3ccc(NC(=O)N(O)Cc4ccccc4)cc3)cc2C1 [H1503, 1-benzyl-1-hydroxy-3-(4-(((2-methylisoindolin-5-yl)methyl)sulfonyl)phenyl)urea]	512	101	> 30	–
CC(NC(=O)Nc1ccc(S(=O)(=O)Cc2ccc3c(c2)CNC3)c(-c2ncco2)c1)c1ccccc1 (stereo not drawn) [H1507, 1-(4-((isoindolin-5-ylmethyl)sulfonyl)-3-(oxazol-2-yl)phenyl)-3-(1-phenylethyl)urea]	12.8	19.7	> 30	–
CC(NC(=O)Nc1ccc(S(=O)(=O)Cc2ccc3c(c2)CN(C)C3)c(-c2ncco2)c1)c1ccccc1 (stereo not drawn) [H1508, 1-(4-(((2-methylisoindolin-5-yl)methyl)sulfonyl)-3-(oxazol-2-yl)phenyl)-3-(1-phenylethyl)urea]	61.8	30	> 30	–
CC(NC(=O)Nc1ccc(S(=O)(=O)Cc2ccc3c(c2)CNC3)cc1C(C)(C)O)c1ccccc1 (stereo not drawn) [H1512, 1-(2-(2-hydroxypropan-2-yl)-4-((isoindolin-5-ylmethyl)sulfonyl)phenyl)-3-(1-phenylethyl)urea]	582	273	> 30	–
CC(=O)N1C2CC=C(CS(=O)(=O)c3ccc(NC(=O)NC(C)c4cccc(Cl)c4Cl)cc3)C1CC2 (stereo not drawn) [H1513, 1-(4-(((8-acetyl-8-azabicyclo[3.2.1]oct-2-en-2-yl)methyl)sulfonyl)phenyl)-3-(1-(2,3-dichlorophenyl)ethyl)urea]	14600	707	> 30	–
CC(NC(=O)Nc1ccc(S(=O)(=O)CC2=CCC3CCC2N3C(C)C)cc1)c1cccc(Cl)c1Cl (stereo not drawn) [H1514, 1-(1-(2,3-dichlorophenyl)ethyl)-3-(4-(((8-isopropyl-8-azabicyclo[3.2.1]oct-2-en-2-yl)methyl)sulfonyl)phenyl)urea]	16200	17.6	> 30	–
CC(NC(=O)Nc1ccc(S(=O)(=O)Cc2ccc3c(c2)CNC3)c(CO)c1)c1ccccc1 (stereo not drawn) [H1520, 1-(3-(hydroxymethyl)-4-((isoindolin-5-ylmethyl)sulfonyl)phenyl)-3-(1-phenylethyl)urea]	26.2	12.7	> 30	–
Cc1ccc(C(C)NC(=O)Nc2ccc(S(=O)(=O)Cc3ccc4c(c3)CNC4)cc2)cc1C(F)F (stereo not drawn) [H1521, 1-(1-(3-(difluoromethyl)-4-methylphenyl)ethyl)-3-(4-((isoindolin-5-ylmethyl)sulfonyl)phenyl)urea]	52.3	17.8	> 30	–
